These results are taken from patent US6451800B1, “Phenylpiperazine derivatives as integrin αvβ3 antagonists” (Meiji Seika Kaisha, Ltd., priority 1998, dated 2002).

By IC50 is commonly meant the concentration that gives 50% inhibition.

Series [1] has as its target T1, integrin αvβ3 (vitronectin receptor purified from the human placenta) (Homo sapiens, UniProt P05106+P06756).
T1 construct: a vitronectin receptor (protein content: 118 μg/ml) purified from the human placenta; from tissue; host or cells: human placenta
Put plainly: αvβ3 binding assay (vitronectin-vitronectin receptor binding assay). Particulars: vitronectin receptor from human placenta; read-out: IC50, inhibition of binding between vitronectin and vitronectin receptor (αvβ3 binding inhibitory activity). Here is the method:
Integrin αvβ3 antagonistic activity was measured for the compounds according to the present invention in a vitronectin-vitronectin receptor binding assay system in accordance with the method of Kouns et al. (W. C. Kouns, D. Kirchhofer, P. Hadvary, A. Edenhofer, T. Weller, G. Pfenninger, H. R. Baumgartner, L. K. Jennings and B. Steiner, Blood, 8, 2539-2547 (1992)).
Specifically, a vitronectin receptor (protein content: 118 μg/ml) purified from the human placenta in accordance with the method of Pytela et al. (R. Pytela, M. D. Pierschbacher, S. Argraves, S. Suzuki, and E. Ruoslahti, Method in Enzymology, 144, 475-489 (1987)) was diluted 50 times with TBS (20 mM Tris-HCl, 150 mM NaCl, 1 mM CaCl2, 1 mM MgCl2, pH 7.4), and distributed and coated on wells (50 μl/well) of a plate (Maxisorp, Nunc, 96 well Immuno Plate). The plate was then allowed to stand at 4° C. for 1 day, washed twice with TBS (200 μl/well), and then subjected to blocking with TBS (150 μl/well) containing 1% bovine serum albumin (SIGMA) at 4° C. overnight. After washing twice with TBS (200 μl/well), 50 μl of vitronectin (CALBIOCHEM) adjusted to 0.2 μg/ml by the addition of TBS (TBS-Tween) containing 0.01% Tween-20 was mixed with 50 μl of each test compound adjusted to each concentration in wells, and a reaction was allowed to proceed at room temperature for 4 hr. After the completion of the reaction, the wells were washed five times with TBS-Tween. A solution prepared by diluting anti-vitronectin rabbit antiserum (CHEMICON) 500 times with TBS-Tween was added as a primary antibody in an amount of 50 μl per well, and a reaction was allowed to proceed at room temperature for 1.5 hr. After washing five times with 200 μl/well of TBS-Tween, a peroxidase (POD)-labeled anti-rabbit IgG antibody solution (CAPPEL) diluted 500 times with TBS-Tween was added as a secondary antibody in an amount of 50 μl/well, and a reaction was allowed to proceed at room temperature for 1.5 hr. After washing five times with TBS-Tween (200 μl /well), ABTS (2,2′-azino-bis(3-ethylbenzthiazoline-6-sulfonic acid), SIGMA) was adjusted to 1 mg/ml by the addition of a ten-fold diluted POD-buffer (ZYMED), and added in an amount of 50 μl/well, and a reaction was allowed to proceed for 5 to 10 min. A 0.1 M citric acid buffer (pH 4.3) containing 0.05% NaN3 was added in an amount of 50 μl/well to stop the reaction, followed by the measurement of the absorbance at 415 nm with a microplate reader (MTP 32, Corona Electric) (reference: 675 nm). The total binding was defined as the absorbance after a reaction using 50 μl of TBS-Tween instead of the test compound, and the non-specific binding (100% inhibition) was defined as the absorbance after a reaction using 50 μl of TBS-Tween containing 2×10^−3 M RGDS. The inhibition was calculated by the following equation: [formula]
IC50 was determined from a primary regression line of the logarithm of each concentration of the test compound and the logarithm of (100−inhibition)/inhibition.

Series [2] has as its system human vascular smooth muscle cells. Nature of the series: Inhibition of adhesion of human vascular smooth muscle cells to immobilized human vitronectin. The class given is cell-based. Particulars: read-out: IC50, inhibitory activity against the adhesion of human vascular smooth muscle cells to vitronectin. The procedure: Inhibitory Activity Against Adhesion of Human Vascular Smooth Muscle Cells to Vitronectin
The adhesion of human vascular smooth muscle cells to immobilized human vitronectin was measured in accordance with the method of Liaw et al. (Liaw L, Almeida M, Hart C E, Schwartz S M, and Giachelli C M, Circulation Research, 74 (2), 214-224 (1994)).
A Dulbecco's phosphate buffer (Dulbecco's PBS(−), Nissui Pharmaceutical Co., Ltd.) solution of human plasma-derived vitronectin (CALBIOCHEM) adjusted to a concentration of 4 μg/ml was first added to wells (50 μl/well) of a microplate (Maxisorp, Nunc), and a reaction for immobilization was allowed to proceed at 4° C. overnight. […]
Next, 50 μl of a Dulbecco's modified Eagle's basal medium containing 10 mg/ml of bovine serum albumin with a medicament added thereto was added to the wells of the human vitronectin-coated assay microplate, followed by pre-cultivation under 5% carbon dioxide at 37° C. for 10 min. […] The absorbance of the microplate thus obtained was measured at 595 nm. […] The inhibition was calculated by the following equation. IC50 was determined from a primary regression line of the logarithm of each concentration of the test compound and the logarithm of (100−inhibition)/inhibition. […]

For series [3], the target named is GP IIb/IIIa (Homo sapiens, UniProt P05106+P08514). Nature of the series: GP IIb/IIIa antagonistic activity (method of Pharmacological Test 2 in WO 94/21599). The class given is binding. The procedure:
(§1) GP IIb/IIIa Antagonistic Activity and Human Platelet Aggregation Inhibitory Activity
GP IIb/IIIa antagonistic activity was measured for the compounds according to the present invention. The measurement of the GP IIb/IIIa antagonistic activity was carried out according to the method described in Pharmacological Test 2 in WO 94/21599.

The subject of series [4] is human platelet aggregation. Nature of the series: Human platelet aggregation inhibitory activity (method of Pharmacological Test 1 in WO 94/21599). The class given is cell-based. Here is the method: as §1
Human platelet aggregation inhibitory activity was measured for the compounds according to the present invention. The measurement of the human platelet aggregation activity was carried out according to the method described in Pharmacological Test 1 in WO 94/21599.

Series [5] is described as follows: Oral absorption in rats. The class given is in vivo. The note with it: data not shown. An excerpt:
Therefore, any of the compounds, wherein R^9 represents an alkyl group or a hydrogen atom, can be used in the treatment of the above diseases.

Series [6] relates to mice. Nature of the series: Acute toxicity test, intravenous administration to mice. The class given is in vivo. The note with it: 12.5 mg/kg. An excerpt:
The compound of Example 3 was intravenously administered to mice.

Chain of GP IIb/IIIa (P08514 32-887 limits assumed): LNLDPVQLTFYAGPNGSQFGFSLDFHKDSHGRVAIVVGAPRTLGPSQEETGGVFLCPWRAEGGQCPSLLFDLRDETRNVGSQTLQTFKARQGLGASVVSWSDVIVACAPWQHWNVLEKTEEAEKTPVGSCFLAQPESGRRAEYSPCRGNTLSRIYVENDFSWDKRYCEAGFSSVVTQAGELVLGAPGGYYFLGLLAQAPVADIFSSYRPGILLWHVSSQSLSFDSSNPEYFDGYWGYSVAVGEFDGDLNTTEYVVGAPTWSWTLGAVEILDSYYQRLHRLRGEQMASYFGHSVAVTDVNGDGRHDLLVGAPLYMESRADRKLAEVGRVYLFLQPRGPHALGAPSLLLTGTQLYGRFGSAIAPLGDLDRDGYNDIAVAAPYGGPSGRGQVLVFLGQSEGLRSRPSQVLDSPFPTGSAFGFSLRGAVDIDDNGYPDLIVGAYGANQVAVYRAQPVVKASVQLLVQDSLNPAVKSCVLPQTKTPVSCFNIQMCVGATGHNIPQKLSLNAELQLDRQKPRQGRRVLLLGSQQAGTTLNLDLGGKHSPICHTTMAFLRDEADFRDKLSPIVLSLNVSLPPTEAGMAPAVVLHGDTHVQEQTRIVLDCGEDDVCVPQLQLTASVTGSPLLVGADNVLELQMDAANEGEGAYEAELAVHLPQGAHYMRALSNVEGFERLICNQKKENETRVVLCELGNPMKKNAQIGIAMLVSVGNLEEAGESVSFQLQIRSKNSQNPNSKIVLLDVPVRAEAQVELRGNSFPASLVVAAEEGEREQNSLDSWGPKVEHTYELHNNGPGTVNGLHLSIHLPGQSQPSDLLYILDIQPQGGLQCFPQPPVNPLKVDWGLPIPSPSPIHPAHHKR
Chain of GP IIb/IIIa (P08514 891-1039 partner limits assumed): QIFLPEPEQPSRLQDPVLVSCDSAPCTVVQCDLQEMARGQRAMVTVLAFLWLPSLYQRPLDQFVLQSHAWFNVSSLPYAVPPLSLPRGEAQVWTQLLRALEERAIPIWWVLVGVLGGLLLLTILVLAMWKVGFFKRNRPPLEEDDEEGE
Chain of GP IIb/IIIa (P05106 27-788): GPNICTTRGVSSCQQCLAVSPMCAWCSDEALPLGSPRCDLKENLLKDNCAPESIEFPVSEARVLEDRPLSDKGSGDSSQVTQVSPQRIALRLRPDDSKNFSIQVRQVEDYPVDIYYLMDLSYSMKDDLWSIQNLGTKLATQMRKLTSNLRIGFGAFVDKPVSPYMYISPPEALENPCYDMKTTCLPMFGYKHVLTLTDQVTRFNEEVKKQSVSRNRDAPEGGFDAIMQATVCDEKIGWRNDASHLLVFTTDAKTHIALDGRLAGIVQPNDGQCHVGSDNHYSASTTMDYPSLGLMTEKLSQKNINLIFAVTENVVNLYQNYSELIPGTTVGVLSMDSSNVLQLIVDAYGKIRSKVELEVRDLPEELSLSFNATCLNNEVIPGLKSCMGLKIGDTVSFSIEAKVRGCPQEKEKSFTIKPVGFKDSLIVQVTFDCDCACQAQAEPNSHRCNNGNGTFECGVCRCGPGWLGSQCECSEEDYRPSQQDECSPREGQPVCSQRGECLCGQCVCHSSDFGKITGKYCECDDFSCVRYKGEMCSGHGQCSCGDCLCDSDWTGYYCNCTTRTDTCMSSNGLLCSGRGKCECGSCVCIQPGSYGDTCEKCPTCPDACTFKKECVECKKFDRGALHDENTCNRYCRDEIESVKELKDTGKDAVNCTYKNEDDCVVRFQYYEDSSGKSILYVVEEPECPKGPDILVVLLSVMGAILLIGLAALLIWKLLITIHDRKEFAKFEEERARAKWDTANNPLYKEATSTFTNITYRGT
T1 sequence (P06756 31-889 limits assumed): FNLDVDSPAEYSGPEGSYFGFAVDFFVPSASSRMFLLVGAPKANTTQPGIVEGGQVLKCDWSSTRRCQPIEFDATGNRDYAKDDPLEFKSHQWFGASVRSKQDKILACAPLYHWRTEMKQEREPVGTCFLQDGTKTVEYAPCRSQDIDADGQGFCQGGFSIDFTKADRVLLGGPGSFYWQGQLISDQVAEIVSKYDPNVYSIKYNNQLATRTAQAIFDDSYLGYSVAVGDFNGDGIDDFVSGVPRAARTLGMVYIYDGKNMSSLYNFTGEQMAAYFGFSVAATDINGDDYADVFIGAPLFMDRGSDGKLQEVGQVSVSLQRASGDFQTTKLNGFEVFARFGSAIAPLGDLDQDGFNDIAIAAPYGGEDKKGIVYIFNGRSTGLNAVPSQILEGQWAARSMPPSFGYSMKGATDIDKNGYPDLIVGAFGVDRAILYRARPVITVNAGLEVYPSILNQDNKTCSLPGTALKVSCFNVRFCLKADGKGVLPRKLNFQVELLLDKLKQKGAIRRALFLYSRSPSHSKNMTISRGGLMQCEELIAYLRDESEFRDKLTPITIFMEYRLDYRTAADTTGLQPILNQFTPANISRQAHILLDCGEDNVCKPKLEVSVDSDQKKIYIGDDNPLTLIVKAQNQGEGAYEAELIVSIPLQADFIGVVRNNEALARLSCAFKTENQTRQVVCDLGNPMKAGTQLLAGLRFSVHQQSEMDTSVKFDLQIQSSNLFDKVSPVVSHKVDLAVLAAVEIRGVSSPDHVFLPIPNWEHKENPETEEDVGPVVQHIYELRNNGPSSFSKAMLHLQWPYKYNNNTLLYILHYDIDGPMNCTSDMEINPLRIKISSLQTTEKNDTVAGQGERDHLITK
T1 sequence (P06756 891-1048 partner limits assumed): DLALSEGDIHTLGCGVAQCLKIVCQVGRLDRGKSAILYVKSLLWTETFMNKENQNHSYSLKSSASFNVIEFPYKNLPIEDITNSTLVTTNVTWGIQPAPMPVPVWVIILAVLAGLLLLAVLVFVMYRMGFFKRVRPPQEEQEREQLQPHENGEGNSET
T1 sequence (P05106 27-788): as the sequence (P05106 27-788) above

`O=C(N[C@@H](CNC(=O)c1ccc(N2CCN(C3=NCCCN3)CC2)cc1)C(=O)O)OCc1ccccc1` [Example 30, (2S)-Benzyloxycarbonylamino-3-[4-{4-(1,4,5,6-tetrahydropyrimidin-2-yl)-piperazin-1-yl}-benzoylamino]-propionic Acid]: the values for the IC50 in series [1] and in series [2] were 31 nM and 750 nM, respectively.

In the case of `O=C(NC[C@H](NS(=O)(=O)c1ccccc1)C(=O)O)c1ccc(N2CCN(C3=NCCCN3)CC2)cc1` [Example 3, (2S)-Benzenesulfonylamino-3-[4-{4-(1,4,5,6-tetrahydropyrimidin-2-yl)-piperazin-1-yl}-benzoylamino]-propionic acid], the “GP IIb/IIIa antagonistic activity (in words)” value in series [3] is listed as “extremely high GP IIb/IIIa antagonistic activity”. In addition, the “human platelet aggregation inhibition (in words)” value in series [4] was “very strongly inhibited human platelet aggregation”. Further, the IC50 in series [4] (read-out: IC50, human platelet aggregation inhibition) was determined as 34 nM. The oral absorption entry in series [5] was “excellent oral absorption”. Moreover, the “acute toxicity, symptoms” value in series [6] was “no special symptom was developed”.
